Reference: US20250136559A1, “SMO MODULATOR COMPOUNDS” (OMASS THERAPEUTICS LIMITED, priority 2022, published 2025)

Legend:
Format in all cases: cell-based
mouse SMO^WT = biological target: T1, mouse SMO^WT (Mus musculus, UniProt P56726); test: Mouse assay: Gli1 qPCR in MEF cells stably expressing mouse SMO WT; details: mSHh-treated, 24 hours; for IC50: Gli1 inhibition by qPCR, read-out: Mouse WT pIC50 (converted); for Mouse WT % Inh: percentage Gli1 inhibition
T1 construct: expressed in transfected cells
T1 sequence (P56726 33-793): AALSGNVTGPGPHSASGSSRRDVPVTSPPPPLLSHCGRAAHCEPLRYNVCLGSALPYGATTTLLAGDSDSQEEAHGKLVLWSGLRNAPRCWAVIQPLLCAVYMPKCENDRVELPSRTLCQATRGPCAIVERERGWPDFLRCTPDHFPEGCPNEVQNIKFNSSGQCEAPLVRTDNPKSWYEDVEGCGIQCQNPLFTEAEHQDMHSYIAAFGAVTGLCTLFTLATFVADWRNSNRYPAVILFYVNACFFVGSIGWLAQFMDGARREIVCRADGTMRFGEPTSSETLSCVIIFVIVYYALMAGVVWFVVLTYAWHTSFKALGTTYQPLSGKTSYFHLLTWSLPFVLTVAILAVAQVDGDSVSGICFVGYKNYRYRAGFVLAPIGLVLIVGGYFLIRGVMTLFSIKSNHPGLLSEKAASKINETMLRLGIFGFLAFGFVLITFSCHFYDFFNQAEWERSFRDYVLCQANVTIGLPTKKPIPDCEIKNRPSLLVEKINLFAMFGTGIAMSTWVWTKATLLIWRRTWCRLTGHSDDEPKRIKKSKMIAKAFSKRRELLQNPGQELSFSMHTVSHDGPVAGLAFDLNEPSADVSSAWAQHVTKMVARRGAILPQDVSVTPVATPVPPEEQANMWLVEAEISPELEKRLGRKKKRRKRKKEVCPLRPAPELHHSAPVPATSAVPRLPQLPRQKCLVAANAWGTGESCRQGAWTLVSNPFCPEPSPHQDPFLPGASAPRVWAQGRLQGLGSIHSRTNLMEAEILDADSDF
Outline: (§1)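 MEFs stably expressing the SMO variant pre-treated with compound 1 h, then stimulated with mSHh and incubated 24 h at 37 °C. Gli1 mRNA quantified by one-step TaqMan qPCR with Gusb reference, four replicates per concentration; expressed as % Gli1 inhibition relative to mSHh-treated controls.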

mouse SMO^D473H = biological target: T2, mouse SMO^D473H (Mus musculus, UniProt P56726, D477H); test: Mouse assay: Gli1 qPCR in MEF cells stably expressing mouse SMO D473H; details: mSHh-treated, 24 hours; for IC50: Gli1 inhibition by qPCR, read-out: Mouse D473H pIC50 (converted); for Mouse D473H % Inh: percentage Gli1 inhibition
T2 construct: expressed in transfected cells
T2 sequence (P56726 33-793 D477H): as the sequence (P56726 33-793) above, with D445H counted along it
Outline: as §1

mouse SMO^W535L = biological target: T3, mouse SMO^W535L (Mus musculus, UniProt P56726, W539L); test: Mouse assay: Gli1 qPCR in MEF cells stably expressing mouse SMO W535L; details: mSHh-treated, 24 hours; for IC50: Gli1 inhibition by qPCR, read-out: Mouse W535L pIC50 (converted); for Mouse W535L % Inh: percentage Gli1 inhibition
T3 construct: expressed in transfected cells
T3 sequence (P56726 33-793 W539L): as the sequence (P56726 33-793) above, with W507L counted along it
Outline: as §1

hSMO WT = biological target: T4, hSMO WT (Homo sapiens, UniProt Q99835); test: Human assay: Gli1 qPCR in MEF SMO-/- cells BacMam-transduced with hSMO WT; details: mSHh-treated, 24 hours; for IC50: Gli1 inhibition by qPCR, read-out: Human WT pIC50 (converted); for Human WT % Inh: percentage Gli1 inhibition
T4 construct: expressed in transfected cells; host or cells: SMO knock-out mouse embryonic fibroblasts (MEF SMO-/-), BacMam transduction
T4 sequence (Q99835 28-787): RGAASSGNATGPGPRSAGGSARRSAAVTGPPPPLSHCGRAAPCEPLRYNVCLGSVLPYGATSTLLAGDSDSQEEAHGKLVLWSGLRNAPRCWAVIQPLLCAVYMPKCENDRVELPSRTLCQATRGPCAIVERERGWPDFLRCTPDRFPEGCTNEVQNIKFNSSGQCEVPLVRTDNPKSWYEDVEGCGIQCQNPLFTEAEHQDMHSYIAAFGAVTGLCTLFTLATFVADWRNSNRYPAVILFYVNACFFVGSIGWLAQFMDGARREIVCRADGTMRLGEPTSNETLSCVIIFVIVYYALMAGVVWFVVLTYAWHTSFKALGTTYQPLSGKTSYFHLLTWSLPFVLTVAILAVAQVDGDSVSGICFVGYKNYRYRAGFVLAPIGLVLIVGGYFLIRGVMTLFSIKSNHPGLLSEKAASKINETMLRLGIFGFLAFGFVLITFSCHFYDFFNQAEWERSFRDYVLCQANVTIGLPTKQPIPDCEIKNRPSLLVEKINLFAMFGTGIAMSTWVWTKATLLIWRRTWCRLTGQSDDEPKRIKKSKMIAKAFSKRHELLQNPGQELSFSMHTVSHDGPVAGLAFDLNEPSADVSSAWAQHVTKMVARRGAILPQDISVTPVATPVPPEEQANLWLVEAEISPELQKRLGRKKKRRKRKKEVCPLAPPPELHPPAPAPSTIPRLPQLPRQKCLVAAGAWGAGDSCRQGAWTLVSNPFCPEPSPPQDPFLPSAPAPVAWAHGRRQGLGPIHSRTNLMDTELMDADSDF
Procedure: (§2) Cell culture. All materials were purchased from Sigma-Aldrich, unless otherwise stated. SMO knock-out mouse embryonic fibroblasts (MEF^SMO−/−) were maintained in Dulbecco's modified Eagle's medium (DMEM)/high-glucose medium supplemented with 10% foetal bovine serum (FBS, Invitrogen), 50 U/mL penicillin and 5 mg/mL streptomycin (supplied as a mixture), 0.1 mMMEM Non-Essential Amino Acids (supplied as 100× solution, ThermoFisher) and 1 mM sodium pyruvate at 37° C. in a humidified 95% air/5% CO2 atmosphere.
(§3) BacMam transduction and compound treatment. MEF^SMO−/− cells were transduced with BacMam virus (MOI 1:10 in the presence of 4.2 mM valproic acid) containing either the hSMO WT or desired receptor variant sequence. Transduced cells were seeded at 6000 cells per well in a Poly-D-Lysine coated 384-well plate (Greiner) before the spent culture medium was removed on the following day and replaced with assay medium (OptiMEM (Gibco) supplemented with 50 U/mL penicillin and 5 mg/mL streptomycin (supplied as a mixture), 0.1 mMMEM Non-Essential Amino Acids (supplied as 100× solution, ThermoFisher), 1 mM sodium pyruvate and 10 mM HEPES) containing test compounds at 2.5× final assay concentrations. After 1 hour incubation, cells were treated with assay medium containing mSHh prepared at 2.5× of final assay concentrations specified in the text and incubated for a further 24 hours at 37° C. in a humidified 95% air/5% ° C.2 atmosphere prior to qPCR analysis.
(§4) Cell lysis and one-step qPCR. The Cells-to-CT™ 1-Step TaqMan® Kit was used in conjunction with TaqMan primer-probe assays for the detection of Gill (FAM, Mm00494654_m1) and Gusb (VIC, Mm01197698_m1) genes (all purchased from Life Technologies). Following 24 hours cell treatment, spent medium was removed and cells were washed with PBS before the application of lysis and stop solution as per manufacturer's instructions. The qPCR reactions were run in a 384-well PCR plate using master mix prepared according to manufacturer's instructions and cell lysate samples from treatment wells. Real-time PCR amplification was detected using the Bio-Rad CFX384 Touch PCR system. Four experimental replicates (two cell replicates and two qPCR replicates) were performed for each compound concentration tested. Real-time data were analysed using the CFX Maestro software (Bio-Rad) and obtained expression values were converted to percentage Gill inhibition by normalising to the average Gill expression of mSHh-treated control samples

human SMO D473H = biological target: T5, human SMO D473H (Homo sapiens, UniProt Q99835, D473H); test: Human assay: Gli1 qPCR in MEF SMO-/- cells BacMam-transduced with hSMO D473H variant; details: mSHh-treated, 24 hours; for IC50: Gli1 inhibition by qPCR, read-out: Human D473H pIC50 (converted); for Human D473H % Inh: percentage Gli1 inhibition
T5 construct: expressed in transfected cells; host or cells: SMO knock-out mouse embryonic fibroblasts (MEF SMO-/-), BacMam transduction
T5 sequence (Q99835 28-787 D473H): as the sequence (Q99835 28-787) above, with D446H counted along it
Procedure: Cell culture. All materials were purchased from Sigma-Aldrich, unless otherwise stated.
as §3, with “concentrations.” for “concentrations. After 1 hour incubation, cells were treated with assay medium containing mSHh prepared at 2.5× of final assay concentrations specified in the text and incubated for a further 24 hours at 37° C. in a humidified 95% air/5% ° C.2 atmosphere prior to qPCR analysis.”
as §4

human SMO W535L = biological target: T6, human SMO W535L (Homo sapiens, UniProt Q99835, W535L); test: Human assay: Gli1 qPCR in MEF SMO-/- cells BacMam-transduced with hSMO W535L variant; details: mSHh-treated, 24 hours; for IC50: Gli1 inhibition by qPCR, read-out: Human W535L pIC50 (converted); for Human W535L % Inh: percentage Gli1 inhibition
T6 construct: expressed in transfected cells; host or cells: SMO knock-out mouse embryonic fibroblasts (MEF SMO-/-), BacMam transduction
T6 sequence (Q99835 28-787 W535L): as the sequence (Q99835 28-787) above, with W508L counted along it
Procedure: as §2, §3, §4

Row | SMILES | IC50 (mouse SMO^WT) [nM] | Mouse WT % Inh (mouse SMO^WT) [%] | IC50 (mouse SMO^D473H) [nM] | Mouse D473H % Inh (mouse SMO^D473H) [%] | IC50 (mouse SMO^W535L) [nM] | Mouse W535L % Inh (mouse SMO^W535L) [%] | IC50 (hSMO WT) [nM] | Human WT % Inh (hSMO WT) [%] | IC50 (human SMO D473H) [nM] | Human D473H % Inh (human SMO D473H) [%] | IC50 (human SMO W535L) [nM] | Human W535L % Inh (human SMO W535L) [%]
1 | CC(C)c1noc(-c2ccc(NC(=O)c3cccc(CN4CCS(=O)(=O)CC4)c3)cc2)n1 [Example 4-10, 3-[(1,1-Dioxo-1,4-thiazinan-4-yl)methyl]-N-[4-(3-propan-2-yl-1,2,4-oxadiazol-5-yl)phenyl]benzamide] | 6.31 | 97.8 | 12.6 | 98.1 | 63.1 | 54.8 | 5.01 | 88.4 | 50.1 | 100.2 | 12.6 | 77.8
2 | O=C(Nc1ccc(-c2noc(Cc3ccc(F)cc3)n2)cc1)c1cccc(CN2CCS(=O)(=O)CC2)c1 [Example 4-17, 3-[(1,1-Dioxo-1,4-thiazinan-4-yl)methyl]-N-[4-[5-[(4-fluorophenyl)methyl]-1,2,4-oxadiazol-3-yl]phenyl]benzamide] | 2 | 97.2 | 7.94 | 97.4 | 6.31 | 68.6 | 0.794 | 99.3 | 39.8 | 114.2 | 20 | 102.7
3 | O=C(Nc1ccc(-c2cc(C3CC3)n[nH]2)cc1)c1cccc(CN2CCS(=O)(=O)CC2)c1 [Example 4-19, N-[4-(5-Cyclopropyl-1H-pyrazol-3-yl)phenyl]-3-[(1,1-dioxo-1,4-thiazinan-4-yl)methyl]benzamide] | 5.01 | 96.8 | 15.8 | 97.7 | 10 | 59.5 | 3.16 | 95.4 | 100 | 107.1 | 12.6 | 86.3

The remaining lines, values ahead:

Row | IC50 (mouse SMO^WT) [nM] | Mouse WT % Inh (mouse SMO^WT) [%] | IC50 (mouse SMO^D473H) [nM] | Mouse D473H % Inh (mouse SMO^D473H) [%] | IC50 (mouse SMO^W535L) [nM] | Mouse W535L % Inh (mouse SMO^W535L) [%] | IC50 (hSMO WT) [nM] | Human WT % Inh (hSMO WT) [%] | IC50 (human SMO D473H) [nM] | Human D473H % Inh (human SMO D473H) [%] | IC50 (human SMO W535L) [nM] | Human W535L % Inh (human SMO W535L) [%] | SMILES
4 | 2 | 97.0 | 5.01 | 97.6 | 3.98 | 49.2 | 1.26 | 98.6 | 100 | 111.1 | 15.8 | 89.9 | Cc1c(-c2ccc(NC(=O)c3ccc(Cl)c(CN4CCS(=O)(=O)CC4)c3)cc2)n[nH]c1C1CC1 [Example 4-22, 4-chloro-N-[4-(5-cyclopropyl-4-methyl-1H-pyrazol-3-yl)phenyl]-3-[(1,1-dioxo-1,4-thiazinan-4-yl)methyl]benzamide]
5 | 0.794 | 97.0 | 6.31 | 97.6 | 5.01 | 58.6 | 0.794 | 99.2 | 63.1 | 111.9 | 6.31 | 92.5 | Cc1c(-c2ccc(NC(=O)c3ccc(Cl)c(CN4CCS(=O)(=O)CC4)c3)cc2)nn(C)c1C1CC1 [Example 4-26, 4-Chloro-N-[4-(5-cyclopropyl-1,4-dimethylpyrazol-3-yl)phenyl]-3-[(1,1-dioxo-1,4-thiazinan-4-yl)methyl]benzamide]
